Laboratory results reported in article PMC6941952, “A homogeneous bioluminescent immunoassay to probe cellular signaling pathway regulation” (Communications Biology, 2020).
Values joined by “and” are separate entries in the source; they are usually repeats but may differ in a detail not shown here. Equal values may be shown once. Read-outs that look alike come from different tables or passages of the source.

Biological target: T1, estrogen receptors (ER) (Homo sapiens, UniProt P03372)
T1 sequence (P03372 1-595): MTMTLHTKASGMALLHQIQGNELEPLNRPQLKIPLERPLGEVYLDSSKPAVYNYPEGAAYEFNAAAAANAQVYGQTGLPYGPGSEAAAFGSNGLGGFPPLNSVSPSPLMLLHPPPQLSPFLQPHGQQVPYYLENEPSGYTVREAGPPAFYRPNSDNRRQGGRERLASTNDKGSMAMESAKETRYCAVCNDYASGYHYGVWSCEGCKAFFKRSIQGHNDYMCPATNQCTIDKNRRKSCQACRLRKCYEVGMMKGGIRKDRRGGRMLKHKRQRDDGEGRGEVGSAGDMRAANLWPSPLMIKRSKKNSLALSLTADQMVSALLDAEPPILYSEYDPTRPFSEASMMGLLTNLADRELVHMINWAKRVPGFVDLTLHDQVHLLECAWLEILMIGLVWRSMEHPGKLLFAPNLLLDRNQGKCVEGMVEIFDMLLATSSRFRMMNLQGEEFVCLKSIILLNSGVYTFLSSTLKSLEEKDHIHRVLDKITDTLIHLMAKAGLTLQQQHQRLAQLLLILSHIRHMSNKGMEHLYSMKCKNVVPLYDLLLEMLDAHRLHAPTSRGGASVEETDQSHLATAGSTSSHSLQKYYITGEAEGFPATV
Conditions: 4 h; for Total ER protein (%) / protein (%) ER: replicate
Experimental: Prior to NanoBiT Cell-Based Immunoassay, 50,000 cells were seeded in 160 µl of complete growth media per well of a 96-well plate and incubated overnight. […] If necessary, the cell culture media were replaced with serum-free media after the cells were stably adherent on the plate and incubated overnight. To treat cells with activators or inhibitors, medium was changed to 30 µl of medium containing inhibitors. If activation of a specific pathway is needed, the cells were stimulated with 10 µl of medium containing activators. To lyse the cells, 10 µl of lysis buffer containing 0.1% digitonin diluted in 1X immunoassay buffer with protease and phosphatase inhibitors was added and the plates were mixed vigorously for 20 min. Then, 50 µl of an antibody mix containing two primary antibodies against the target protein and NanoBiT detecting antibodies (0.3 µl each per well), diluted in 1X immunoassay buffer was added to the lysates. The plates were incubated at 23 °C for 90 min, followed by the addition of 25 µl of Nano-Glo® reagent consisting of Nano-Glo® Luciferase Assay Substrate mixed with 1X immunoassay buffer. Luminescence was measured using a plate-reading luminometer.
All 96-well assay plates were read using a GloMax® 96 Microplate Luminometer from Promega. The instrument was set to 0.5 s integration time. In order to obtain net change of signal, the reagent background values (signal from the well containing all reagent except primary antibodies) were subtracted from the sample values. To plot and analyze the data, Microsoft Excel and GraphPad Prism® Software were used. IC50 values were determined by using a nonlinear regression fit to a sigmoidal dose response (variable slope).

[1] = Fulvestrant 0.0976562 nM, MCF-7, Fig 7c
[2] = Fulvestrant 0.195312 nM, MCF-7, Fig 7c
[3] = Fulvestrant 0.390625 nM, MCF-7, Fig 7c
[4] = Fulvestrant 0.78125 nM, MCF-7, Fig 7c
[5] = Fulvestrant 1.5625 nM, MCF-7, Fig 7c
[6] = Fulvestrant 3.125 nM, MCF-7, Fig 7c
[7] = Fulvestrant 6.25 nM, MCF-7, Fig 7c
[8] = Fulvestrant 25 nM, MCF-7, Fig 7c
[9] = Fulvestrant 50 nM, MCF-7, Fig 7c
[10] = Fulvestrant 100 nM, MCF-7, Fig 7c

Average Total ER protein (%) (0.0976562 nM, MCF-7, Fig 7b): 100% | Raw data ER (0.0976562 nM, MCF-7, Fig 7b): 1203000 and 1328000 | Subtract reagent background ER (0.0976562 nM, MCF-7, Fig 7b): 1167700 and 974100 and 1096600 | Total ER protein (%) (0.0976562 nM, MCF-7, Fig 7b): 102.1% and 102.0% | Raw data ER (0.195312 nM, MCF-7, Fig 7b): 1310000 and 1183000 and 1306000 | Subtract reagent background ER (0.195312 nM, MCF-7, Fig 7b): 1076600 and 955300 and 1077400 | Total ER protein (%) (0.195312 nM, MCF-7, Fig 7b): 94.2% and 100.2% | Average Total ER protein (%) (0.390625 nM, MCF-7, Fig 7b): 88% | Raw data ER (0.390625 nM, MCF-7, Fig 7b): 1176000 and 1121000 | Subtract reagent background ER (0.390625 nM, MCF-7, Fig 7b): 945500 and 891700 and 1008700 | Total ER protein (%) (0.390625 nM, MCF-7, Fig 7b): 82.7% and 87.9% and 93.8% | Average Total ER protein (%) (0.78125 nM, MCF-7, Fig 7b): 73% | Raw data ER (0.78125 nM, MCF-7, Fig 7b): 1017000 and 962500 and 1057000 | Subtract reagent background ER (0.78125 nM, MCF-7, Fig 7b): 788000 and 733700 and 828700 | Total ER protein (%) (0.78125 nM, MCF-7, Fig 7b): 68.9% and 72.3% and 77.1% | Average Total ER protein (%) (1.5625 nM, MCF-7, Fig 7b): 52% | Raw data ER (1.5625 nM, MCF-7, Fig 7b): 787000 and 772400 and 799700 | Subtract reagent background ER (1.5625 nM, MCF-7, Fig 7b): 564400 and 548300 and 571400 | Total ER protein (%) (1.5625 nM, MCF-7, Fig 7b): 49.4% and 54.1% and 53.2% | Average Total ER protein (%) (3.125 nM, MCF-7, Fig 7b): 36% | Raw data ER (3.125 nM, MCF-7, Fig 7b): 594200 and 628300 | Subtract reagent background ER (3.125 nM, MCF-7, Fig 7b): 405200 and 370300 and 399100 | Total ER protein (%) (3.125 nM, MCF-7, Fig 7b): 35.4% and 36.5% and 37.1% | Average Total ER protein (%) (6.25 nM, MCF-7, Fig 7b): 29% | Raw data ER (6.25 nM, MCF-7, Fig 7b): 540300 and 521900 | Subtract reagent background ER (6.25 nM, MCF-7, Fig 7b): 294500 and 313200 | Total ER protein (%) (6.25 nM, MCF-7, Fig 7b): 27.5% and 29.0% and 29.1% | Average Total ER protein (%) (25 nM, MCF-7, Fig 7b): 23% | Raw data ER (25 nM, MCF-7, Fig 7b): 474000 and 455500 and 481300 | Subtract reagent background ER (25 nM, MCF-7, Fig 7b): 248500 and 229500 and 255100 | Total ER protein (%) (25 nM, MCF-7, Fig 7b): 21.7% and 22.6% and 23.7% | Average Total ER protein (%) (50 nM, MCF-7, Fig 7b): 22% | Raw data ER (50 nM, MCF-7, Fig 7b): 467500 and 453000 and 467700 | Subtract reagent background ER (50 nM, MCF-7, Fig 7b): 244000 and 227100 and 240600 | Total ER protein (%) (50 nM, MCF-7, Fig 7b): 21.3% and 22.4% | Average Total ER protein (%) (100 nM, MCF-7, Fig 7b): 21% | Raw data ER (100 nM, MCF-7, Fig 7b): 455900 and 441400 and 453000 | Subtract reagent background ER (100 nM, MCF-7, Fig 7b): 231900 and 220300 and 227600 | Total ER protein (%) (100 nM, MCF-7, Fig 7b): 20.3% and 21.7% and 21.2% | Average ER protein (%) [1]: 104.6% | Raw data ER [1]: 1438000 and 1444000 and 1315000 | Subtract reagent background ER [1]: 1210700 and 1216700 and 1087700 | protein (%) ER [1]: 106.1% and 108.4% and 99.4% | Average ER protein (%) [2]: 107.5% | Raw data ER [2]: 1431000 and 1445000 and 1414000 | Subtract reagent background ER [2]: 1204100 and 1218100 and 1187100 | protein (%) ER [2]: 105.5% and 108.5% and 108.4% | Average ER protein (%) [3]: 98.2% | Raw data ER [3]: 1290000 and 1346000 and 1340000 | Subtract reagent background ER [3]: 1063550 and 1119550 and 1113550 | protein (%) ER [3]: 93.2% and 99.7% and 101.7% | Average ER protein (%) [4]: 82.3% | Raw data ER [4]: 1111000 and 1176000 | Subtract reagent background ER [4]: 884650 and 927650 and 949650 | protein (%) ER [4]: 77.5% and 82.6% and 86.7% | Average ER protein (%) [5]: 59.5% | Raw data ER [5]: 890700 and 898000 and 891300 | Subtract reagent background ER [5]: 663400 and 670700 and 664000 | protein (%) ER [5]: 58.2% and 59.7% and 60.7% | Average ER protein (%) [6]: 41.1% | Raw data ER [6]: 677900 and 688400 and 691000 | Subtract reagent background ER [6]: 452050 and 462550 and 465150 | protein (%) ER [6]: 39.6% and 41.2% and 42.5% | Average ER protein (%) [7]: 31.0% | Raw data ER [7]: 573300 and 576800 and 566100 | Subtract reagent background ER [7]: 351400 and 340700 | protein (%) ER [7]: 30.5% and 31.3% and 31.1% | Average ER protein (%) [8]: 24.2% | Raw data ER [8]: 499600 and 500900 and 484100 | Subtract reagent background ER [8]: 275200 and 276500 and 259700 | protein (%) ER [8]: 24.1% and 24.6% and 23.7% | Average ER protein (%) [9]: 22.7% | Raw data ER [9]: 476500 and 482700 and 473700 | Subtract reagent background ER [9]: 253450 and 259650 and 250650 | protein (%) ER [9]: 22.2% and 23.1% and 22.9% | Average ER protein (%) [10]: 20.4% | Raw data ER [10]: 453900 and 451400 and 438800 | Subtract reagent background ER [10]: 234150 and 231650 and 219050 | protein (%) ER [10]: 20.5% and 20.6% and 20.0% | lowering of total ER protein level (MCF-7 cells, titration): over 80%
Structure (SMILES): C[C@]12CC[C@@H]3c4ccc(O)cc4C[C@@H](CCCCCCCCC[S+]([O-])CCCC(F)(F)C(F)(F)F)[C@H]3[C@@H]1CC[C@@H]2O (some centres unmarked) [Fulvestrant]
